According to patent publication US20230339970A1, “CASEIN KINASE 1 DELTA MODULATORS” (priority 2020, published 2023):

How the values were obtained:
[1] = molecular target: T1, human recombinant GST cleaved CSNK1D (Homo sapiens, UniProt P48730); experiment: Purified Enzyme Assay (ADP-Glo CSNK1D Kinase Assay); format: biochemical; settings: 2 nM CSNK1D; peptide substrate 150 μM; ATP 20 μM; 45 minutes at room temperature
T1 construct: GST (cleaved yes); purchased University of Dundee clone DU 19064
Procedure: In this assay, CSNK1D phosphorylates a substrate peptide PLSRTL-pS-VASLPGL in the presence of ATP. […] This assay monitors CSNK1D kinase activity by measuring the amount of ADP produced in the assay.
The substrate mix is added to each well of a low volume, 384-well, white opaque plate. Test compounds were diluted in HBSS and added in a dose-response to the plate.
The total volume of each reaction is 5 ul (2 μL of substrate mix, 1 μL of diluted compounds, and 2 μL of human recombinant CSNK1D). The plates are incubated for 45 minutes at room temperature.
ADP was quantified using the ADP-Glo™ Kinase Assay. ADP-Glo Reagent (5 μL) was added to each well. After a 1 hour incubation at room temperature, Kinase Detection Reagent (10 μL) was added to each well and incubated for 30 minutes. […] The raw data from the Envision is used to calculate percent activity.

human CSNK1D = molecular target: T2, human CSNK1D (Homo sapiens, UniProt P48730); experiment: Whole Cell nBRET CSNK1D Binding Assay; settings: living CHO cells stably expressing human CSNK1D tagged with nanoluciferase; NanoBret tracer 130 nM; 2 hours at 37 C
T2 construct: expressed in transfected cells
T2 sequence (P48730 whole entry): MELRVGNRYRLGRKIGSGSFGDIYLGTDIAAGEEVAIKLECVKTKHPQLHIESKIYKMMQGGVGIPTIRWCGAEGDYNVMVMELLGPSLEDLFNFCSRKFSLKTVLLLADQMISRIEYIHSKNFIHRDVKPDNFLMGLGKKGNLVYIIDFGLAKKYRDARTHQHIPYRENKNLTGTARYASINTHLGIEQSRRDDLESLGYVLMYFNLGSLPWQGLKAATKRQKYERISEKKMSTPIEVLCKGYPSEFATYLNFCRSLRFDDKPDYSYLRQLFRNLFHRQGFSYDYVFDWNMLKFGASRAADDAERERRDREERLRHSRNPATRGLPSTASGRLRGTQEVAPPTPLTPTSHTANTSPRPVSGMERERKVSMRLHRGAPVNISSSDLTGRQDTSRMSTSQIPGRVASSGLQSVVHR

T1 sequence (P48730 whole entry): as above

Row | IC50 [1] [nM] | IC50 (human CSNK1D) [nM] | Compound
1 | 66 | 1950 | Fc1ccc(-c2nn3c(c2-c2ccnc4[nH]ncc24)CC2(C3)CC2(F)F)nc1 (single isomer, unassigned) [Example 255, (*R)-1′.1′-Difluoro-2-(5-fluoro-2-pyridyl)-3-(1H-pyrazolo[3,4-b]pyridin-4-yl)spiro[4,6-dihydropyrrolo[1,2-b]pyrazole-5,2′-cyclopropane]]
2 | 2 | 3 | Cc1cc(-c2c(-c3ccc(F)cc3)nn3c2C[C@@]2(C3)CC2(F)F)c2cn[nH]c2n1 (single isomer, unassigned) [Example 252, (*S)-1′,1′-Difluoro-2-(4-fluorophenyl)-3-(6-methyl-1H-pyrazolo[3,4-b]pyridin-4-yl)spiro[4,6-dihydropyrrolo[1,2-b]pyrazole-5,2′-cyclopropane]]
3 | 264 | 3890 | C[C@@]1(C(F)(F)F)Cn2nc(-c3ccc(F)cn3)c(-c3ccn4nccc4c3)c2CO1 (single isomer, unassigned) [Example 415, (*S)-2-(5-Fluoropyridin-2-yl)-6-methyl-3-(pyrazolo[1,5-a]pyridin-5-yl)-6-(trifluoromethyl)-6,7-dihydro-4H-pyrazolo[5,1-c][1,4]oxazine]
4 | 14 | 233 | Cc1cc(-c2c(-c3ccc(F)cc3)nn3c2COCC3(C)C)c2cn[nH]c2n1 [Example 121, 2-(4-Fluorophenyl)-7,7-dimethyl-3-(6-methyl-1H-pyrazolo[3,4-b]pyridin-4-yl)-4,6-dihydropyrazolo[5,1-c][1,4]oxazine]
5 | 1 | 4 | Cc1cc(-c2c(-c3ccc(F)cc3)nn3c2COC(C)(C)C3)c2cn[nH]c2n1 [Example 145, 2-(4-Fluorophenyl)-6,6-dimethyl-3-(6-methyl-1H-pyrazolo[3,4-b]pyridin-4-yl)-6,7-dihydro-4H-pyrazolo[5,1-c][1,4]oxazine]
6 | 10 | 297 | Cc1cc(-c2c(-c3ccc(F)cc3)nn3c2COC[C@@H]3C)c2cn[nH]c2n1 (single isomer, unassigned) [Example 93, (*S)-2-(4-Fluorophenyl)-7-methyl-3-(6-methyl-1H-pyrazolo[3,4-b]pyridin-4-yl)-6,7-dihydro-4H-pyrazolo[5,1-c][1,4]oxazine]
7 | 54 | 252 | Cc1cc(-c2c(-c3ccc(F)cn3)nn3c2CO[C@@](C)(C(F)(F)F)C3)c2cn[nH]c2n1 (single isomer, unassigned) [Example 180, (*R)-2-(5-Fluoropyridin-2-yl)-6-methyl-3-(6-methyl-1H-pyrazolo[3,4-b]pyridin-4-yl)-6-(trifluoromethyl)-6,7-dihydro-4H-pyrazolo[5,1-c][1,4]oxazine]
8 | 92 | 1410 | [2H]C([2H])([2H])OC[C@@]1(F)CCc2c(-c3cc(C)nc4[nH]ncc34)c(-c3ccc(F)cn3)nn2C1 (single isomer, unassigned) [Example 311, (*R)-4-(6-Fluoro-2-(5-fluoropyridin-2-yl)-6-((methoxy-d3)methyl)-4,5,6,7-tetrahydropyrazolo[1,5-a]pyridin-3-yl)-6-methyl-1H-pyrazolo[3,4-b]pyridine]
9 | 2 | 26 | C[C@@H]1Cn2nc(-c3ccc(F)cc3)c(-c3ccnc4[nH]ncc34)c2CO1 (single isomer, unassigned) [Example 82, (*R)-2-(4-Fluorophenyl)-6-methyl-3-(1H-pyrazolo[3,4-b]pyridin-4-yl)-6,7-dihydro-4H-pyrazolo[5,1-c][1,4]oxazine]
10 | 15 | 702 | CC1(C)Cn2nc(-c3c(F)cncc3F)c(-c3ccnc4[nH]ncc34)c2CO1 [Example 165, 2-(3,5-Difluoropyridin-4-yl)-6,6-dimethyl-3-(1H-pyrazolo[3,4-b]pyridin-4-yl)-6,7-dihydro-4H-pyrazolo[5,1-c][1,4]oxazine]
11 | 1 | 3 | Cc1cc(-c2c(-c3ccc(F)cc3)nn3c2CC(C)(C)C3)c2cn[nH]c2n1 [Example 232, 4-[2-(4-Fluorophenyl)-5,5-dimethyl-4,6-dihydropyrrolo[1,2-b]pyrazol-3-yl]-6-methyl-1H-pyrazolo[3,4-b]pyridine]
